In paper PMC4666356 (2015):

Columns and labels:
[1] = tested on: mt6363 (DNA, G4) AGGGACGCGGGCGGGGGATATAGGGT; assay: CD melting at 265 nm; conditions: 20 mM K+; 4 uM DNA, 8 uM compound
[2] = tested on: mt1015 (DNA, G4) GGGCTTGATGTGGGGAGGGGTGTTTAAGGG; assay: fluorescence lifetime; conditions: qualitative; decay time ~3.3 ns

SMILES | dTm [1] | binding [2]
C[n+]1ccccc1/C=C/c1ccc2c(c1)c1cc(/C=C/c3cccc[n+]3C)ccc1n2CCCCCCCCCCCC[N+]1(C)CCCCC1 | ~ 30 °C | yes
C[n+]1ccccc1/C=C/c1ccc2c(c1)c1cc(/C=C/c3cccc[n+]3C)ccc1n2CCCCCC[N+]1(C)CCCCC1 | ~ 30 °C | 
